Measurements: patent US8067424B2, “Selective inhibitors for cyclin-dependent kinases” (Emory University, priority 2007, dated 2011)
Like-named read-outs stand apart in the source and are kept apart here.

Assays:
[1] = tested on: MCF-7 tumors; assay: MCF-7 tumor growth in nude mice, BS-181 i.p.; type: in vivo, nu/nu-BALB/c athymic nude mice; details: i.p. twice daily, 14 days
Text: This example illustrates that BS-181 is capable of inhibiting MCF-7 tumor growth in nude mice. The following protocol was used in these mouse xenograft experiments. Female, 7-week-old, nu/nu-BALB/c athymic nude mice were purchased from Harlan Olac Ltd. The animals were housed in isolated ventilator cages (IVC) in a 12-h light/dark cycle. The animals received sterilized water and sterile rodent food ad libitum. All procedures were approved by the CBS, Imperial College London Ethics Committee and were covered by a Government Home Office project license for these specific studies. Before inoculation of animal with cells, a 0.72 mg 17β Estradiol 60-day release pellet was implanted subcutaneously (Innovative Research of America, USA). For insertion, animals were anaesthetised, an incision was made to the flank of the animals under aseptic conditions and pellets were implanted. The wound was closed with stainless steel sutures. MCF-7 cells (5×10^6 cells) were injected subcutaneously in not more than 0.1 ml volume into the flank of the animals. Tumor measurements were performed twice per week, and volumes were calculated using the formula ½ [length (mm)]×[width (mm)]^2. […] Throughout the 14-day treatment period animal weights were determined each day and tumor volume every 48 hours.

[2] = molecular target: MAPKAP-K3 (Homo sapiens, UniProt Q16644); assay: Kinase screen: MAPKAP-K3 assay; type: biochemical; details: read-out: Mean Remaining Enzyme Activity (%)
Procedure: Generally, the same procedure was used for all assays. Since the total assay volume was 25.5 microliters, 0.5 microliters of inhibitors at 51× assay concentration were added to the plates before any other addition.
The basic procedure was to add 0.5 microliters inhibitor/control in DMSO to plate. Fifteen microliters of enzyme/substrate/buffer mix were added and incubated for 5 min. Ten microliters MgATP at the relevant concentration were added and incubated for 30 min. The assay was stopped by adding 5 microliters of 3% orthophosphoric acid. The assay was transferred to a p81 filter plate and read in a scintillation counter of 30 sec/well. Note that this assay procedure was not followed for MKK1, which instead involved a two-step assay, and PKC alpha, which required the addition of lipid vesicles.
MAPKAP-K3 assay: 5-20 mU of MAPKAP-K3 (diluted in 50 mM Tris (pH 7.5), 0.1 mM EGTA, 1 mg/ml BSA, 0.1%, b-Mercaptoethanol) was assayed against substrate peptide ([…]) (SEQ ID NO: 3) in a final volume of 25.5 μl containing 50 mM Tris (pH 7.5), 0.1 mM EGTA, 0.1%, b-Mercaptoethanol, 30 μM substrate peptide, 10 mM magnesium acetate and 0.02 mM [33P-g-ATP] (500-1000 cpm/pmole) and incubated for 30 mins at room temperature. Assays were stopped by addition of 5 μl of 0.5M (3%) orthophosphoric acid. Assays were harvested onto P81 Unifilter plates using a wash buffer of 50 mM orthophosphoric acid.

[3] = tested on: HOP-92; assay: cells; details: Homo sapiens
[4] = tested on: MDA-MB-231/ATCC; details: for Mean Optical Densities / Percent Growth: MDA-MB-231/ATCC
[5] = tested on: CAKI-1
[6] = tested on: DU-145; assay: cells; details: Homo sapiens
[7] = tested on: OVCAR-4
[8] = tested on: MDA-MB-468
[9] = tested on: UACC-257; assay: cells; details: Homo sapiens
[10] = tested on: SK-MEL-2; assay: cells; details: Homo sapiens
[11] = tested on: SR; assay: cells; details: Homo sapiens
[12] = tested on: HL-60(TB); assay: cells; details: Homo sapiens
[13] = tested on: OVCAR-5; assay: cells; details: Homo sapiens
[14] = CAKI-1, log10 concentration −4.0
[15] = CAKI-1, log10 concentration −5.0
[16] = CAKI-1, log10 concentration −6.0
[17] = CAKI-1, log10 concentration −7.0
[18] = CAKI-1, log10 concentration −8.0
[19] = OVCAR-4, log10 concentration −4.0
[20] = OVCAR-4, log10 concentration −5.0
[21] = OVCAR-4, log10 concentration −6.0
[22] = OVCAR-4, log10 concentration −7.0
[23] = OVCAR-4, log10 concentration −8.0
[24] = MDA-MB-468, log10 concentration −4.0
[25] = MDA-MB-468, log10 concentration −5.0
[26] = MDA-MB-468, log10 concentration −6.0
[27] = MDA-MB-468, log10 concentration −7.0
[28] = MDA-MB-468, log10 concentration −8.0

Sequence of MAPKAP-K3 (Q16644 whole entry, species assumed): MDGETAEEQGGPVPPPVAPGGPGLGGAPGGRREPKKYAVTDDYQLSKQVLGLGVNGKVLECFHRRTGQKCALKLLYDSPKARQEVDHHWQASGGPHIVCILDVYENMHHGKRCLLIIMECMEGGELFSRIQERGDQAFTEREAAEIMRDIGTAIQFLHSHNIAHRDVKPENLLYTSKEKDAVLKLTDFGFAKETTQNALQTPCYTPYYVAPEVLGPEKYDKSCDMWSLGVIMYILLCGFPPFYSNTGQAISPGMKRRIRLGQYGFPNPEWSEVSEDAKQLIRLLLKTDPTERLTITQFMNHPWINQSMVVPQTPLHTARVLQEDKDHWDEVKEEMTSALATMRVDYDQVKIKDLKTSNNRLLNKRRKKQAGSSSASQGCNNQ

CC(C)c1cnn2c(NCc3ccccc3)cc(NCCCCCCCN)nc12 [BS-181]
Change in animal weight [1]: nearly constant | Increase in tumor volume relative to day one ([1]; different doses): increased more slowly with increasing dosage | remaining activity at 10 µM [2]: 119%

CC(C)c1cnn2c(NCc3ccccc3)cc(N[C@@H](CO)[C@H](O)CO)nc12 [ICEC0318, (3S)-3-(7-(Benzylamino)-3-isopropylpyrazolo[1,5-a]pyrimidin-5-ylamino)butane-1,2,4-triol]
GI50 ([3]; HOP-92): 369 nM | CC50 ([3]; HOP-92, read-out: LC50): > 100000 nM | TGI ([4]; MDA-MB-231/ATCC (Breast Cancer)): >1.00E−4 | Mean Optical Densities ([4]; log10 concentration −4.0): 0.482 | Percent Growth ([4]; log10 concentration −4.0): 11% | Mean Optical Densities ([4]; log10 concentration −5.0): 0.529 | Percent Growth ([4]; log10 concentration −5.0): 19% | Mean Optical Densities ([4]; log10 concentration −6.0): 0.548 | Percent Growth ([4]; log10 concentration −6.0): 22% | Mean Optical Densities ([4]; log10 concentration −7.0): 1.039 | Percent Growth ([4]; log10 concentration −7.0): 101% | Mean Optical Densities ([4]; log10 concentration −8.0): 1.087 | Percent Growth ([4]; log10 concentration −8.0): 109% | TGI ([5]; CAKI-1 (Renal Cancer)): >1.00E−4 | Mean Optical Densities [5, 14]: 0.358 | Percent Growth [5, 14]: 2% | Mean Optical Densities [5, 15]: 0.372 | Percent Growth [5, 15]: 5% | Mean Optical Densities [5, 16]: 0.423 | Percent Growth [5, 16]: 18% | Mean Optical Densities [5, 17]: 0.631 | Percent Growth [5, 17]: 71% | Mean Optical Densities [5, 18]: 0.704 | Percent Growth [5, 18]: 90% | GI50 ([6]; DU-145): 377 nM | CC50 ([6]; DU-145, read-out: LC50): > 100000 nM | TGI ([7]; OVCAR-4 (Ovarian Cancer)): 1.45E−5 | Mean Optical Densities [7, 19]: 0.269 | Percent Growth [7, 19]: −25% | Mean Optical Densities [7, 20]: 0.399 | Percent Growth [7, 20]: 5% | Mean Optical Densities [7, 21]: 0.445 | Percent Growth [7, 21]: 10% | Mean Optical Densities [7, 22]: 1.138 | Percent Growth [7, 22]: 95% | Mean Optical Densities [7, 23]: 1.246 | Percent Growth [7, 23]: 109% | GI50 ([8]; Homo sapiens, MDA-MB-468): 165 nM | CC50 ([8]; Homo sapiens, MDA-MB-468, read-out: LC50): 803 nM | TGI ([8]; MDA-MB-468 (Breast Cancer)): 3.64E−7 | Mean Optical Densities [8, 24]: 0.121 | Percent Growth [8, 24]: −72% | Mean Optical Densities [8, 25]: 0.153 | Percent Growth [8, 25]: −64% | Mean Optical Densities [8, 26]: 0.154 | Percent Growth [8, 26]: −64% | Mean Optical Densities [8, 27]: 0.884 | Percent Growth [8, 27]: 82% | Mean Optical Densities [8, 28]: 0.946 | Percent Growth [8, 28]: 93% | GI50 ([9]; UACC-257): 344 nM | CC50 ([9]; UACC-257, read-out: LC50): > 100000 nM | GI50 ([10]; SK-MEL-2): 404 nM | CC50 ([10]; SK-MEL-2, read-out: LC50): > 100000 nM | GI50 [11]: 75.8 nM | CC50 ([11]; read-out: LC50): > 100000 nM | GI50 ([12]; HL-60): 166 nM | CC50 ([12]; HL-60, read-out: LC50): > 100000 nM | GI50 ([13]; OVCAR-5): 305 nM | CC50 ([13]; OVCAR-5, read-out: LC50): > 100000 nM
